21 molecules from ChEMBL document CHEMBL3608297, “Structure-based de novo design and synthesis of aminothiazole-based p38 MAP kinase inhibitors” (Bioorg Med Chem Lett, 2015) can be followed below.

Where only a bound is given, the exact number is not on record here.

The target in the assay is MAP kinase p38 (Homo sapiens, UniProt O15264+Q15759+Q16539+P53778). Briefly: Inhibition of p38 MAP kinase (unknown origin) by biochemical assay. The class given is protein assay.
In the case of `O=C(c1ccccc1)c1cnc(Nc2ccccc2)s1`, the IC50 (commonly the concentration that inhibits the measured activity by half) stood at 1070 nM.
The molecule `O=C(c1cnc(Nc2ccc(F)cc2F)s1)c1ccccc1Cl` registered an IC50 of 180 nM.
In turn, `O=C(c1cnc(Nc2ccc(O)cc2F)s1)c1ccccc1Cl` displayed an IC50 of 250 nM.
`O=C(c1cnc(Nc2ccc(F)cc2)s1)c1ccccc1Cl` returned an IC50 of 330 nM.
In turn, `Nc1cccc(Nc2ncc(C(=O)c3ccccc3Cl)s2)c1F` gave an IC50 of 450 nM.
In turn, `O=C(c1cnc(Nc2ccccc2)s1)c1ccccc1Cl` displayed an IC50 of 610 nM.
Turning to `O=C(c1cnc(Nc2ccccc2F)s1)c1ccccc1Cl`, the IC50 stood at 790 nM.
Take `O=C(c1cnc(Nc2ccc(Cl)cc2)s1)c1ccccc1Cl`: the half-maximal inhibitory concentration (IC50) is 910 nM.
With `O=C(c1cnc(Nc2ccc(Br)cc2)s1)c1ccccc1Cl`, the IC50 was 940 nM.
The molecule `O=C(c1cnc(Nc2ccccc2)s1)c1ccccc1Br` yielded an IC50 of 1070 nM.
`O=C(Nc1cccc(Nc2ncc(C(=O)c3ccccc3Cl)s2)c1)c1ccccc1` came in with an IC50 of 1200 nM.
For `COc1cccc(C(=O)c2cnc(Nc3ccccc3)s2)c1` the value was 1230 nM; for `O=C(c1cccc(O)c1)c1cnc(Nc2ccccc2)s1`, 1310 nM; for `COc1ccc(Nc2ncc(C(=O)c3ccccc3Cl)s2)cc1`, 1440 nM.
`O=C(c1cnc(Nc2cccc([N+](=O)[O-])c2)s1)c1ccccc1Cl` came in with a 50% inhibitory concentration (IC50) of 1620 nM.
Take `O=C(Nc1cccc(Nc2ncc(C(=O)c3ccccc3Cl)s2)c1F)c1ccccc1`: the IC50 is 1980 nM.
The figure for `O=C(c1cnc(Nc2ccc(O)cc2)s1)c1ccccc1Cl` is 2040 nM.
`O=C(c1cnc(Nc2cccc([N+](=O)[O-])c2F)s1)c1ccccc1Cl` returned an IC50 of 12700 nM.
The figure for `Nc1cccc(Nc2ncc(C(=O)c3ccccc3Cl)s2)c1` is 16200 nM; for `Cc1ccccc1C(=O)c1cnc(Nc2ccccc2)s1` it is 116000 nM.
`Nc1ccc(Nc2ncc(C(=O)c3ccccc3Cl)s2)cc1` registered an IC50 above 200000 nM.
